Target: Nrf2-Keap1 (Homo sapiens, UniProt Q14145)
Experiment: DiscoveRx PathHunter Nrf2-Keap1 nuclear translocation functional assay (agonist format)
Type: cell-based
Conditions: in duplicate, agonist mode; for EC50: 10 concentrations, 3-fold serial dilutions, 30 μM top concentration, normalized to CDDO methyl ester and vehicle; for activation at 10 µM: single concentration of 10 μM, normalized to control ligand (CDDO methyl ester) and vehicle
Description: DiscoveRx PathHunter® Nrf2-Keap1 Functional Assay
DiscoveRx's Nrf2-Keapl translocation assay was used to profile compounds. Primary Screening was performed in duplicate at a single concentration of 10 μM and EC50 determinations were performed in duplicate at 10 concentrations with 3-fold serial dilutions at a 30 μM top concentration or an otherwise specified top concentration.
The PathHunter® Nuclear Translocation assay detects translocation of a target protein to, or from, the nucleus. In this system, Prolink™ (PK), a small enzyme fragment, is fused to the protein of interest and Enzyme Acceptor (EA) is localized in the nucleus. Activation of the signaling pathway induces the target protein to either transit into the nucleus, thus forcing complementation of the PK and EA fragments, or out of the nucleus, hindering complementation of the fragments.
Cell handling: PathHunter Pathway cell lines were expanded from freezer stocks according to standard procedures. 5000 cells were seeded in Cell Plating Reagent 0 (containing 1% FBS) to a total volume of 20 μL into white walled, 384-well microplates and incubated for the overnight prior to testing.
Agonist format: For Agonist determination, cells were incubated with sample to induce response. Dilution of sample stocks was performed to generate 100× sample in DMSO. Intermediate dilution of sample stocks was performed to generate 5× sample in assay buffer (Cell Plating Reagent 0 containing 1% FBS). 5 μL of 5× sample was added to cells and incubated at room temperature for 6 hours. Vehicle concentration was 1%.
Signal detection: Assay signal was generated through a single addition of 25 μL (100% v/v) of PathHunter Flash Detection reagent, followed by a one hour incubation at room temperature. Microplates were read following signal generation with a PerkinElmer Envision™ instrument for chemiluminescent signal detection.
Data analysis: Compound activity was analyzed using CBIS data analysis suite (ChemInnovation, CA). For agonist mode assays, percentage activity was calculated using the following formula: % Activity=100%×(mean RLU of test sample−mean RLU of vehicle control)/(mean MAX RLU control ligand−mean RLU of vehicle control). For EC50 determination, a control agonist dose response curve was generated in the Keap 1-Nrf2 biosensor assay, data was normalized to the maximal and minimal response observed in the presence of the control ligand and vehicle respectively. CDDO methyl ester was used as a control compound. Compounds were tested in the agonist mode of the assay and data was normalized to the maximal and minimal response observed in the presence of control ligand and vehicle.

Chain of Nrf2-Keap1 (Q14145 whole entry): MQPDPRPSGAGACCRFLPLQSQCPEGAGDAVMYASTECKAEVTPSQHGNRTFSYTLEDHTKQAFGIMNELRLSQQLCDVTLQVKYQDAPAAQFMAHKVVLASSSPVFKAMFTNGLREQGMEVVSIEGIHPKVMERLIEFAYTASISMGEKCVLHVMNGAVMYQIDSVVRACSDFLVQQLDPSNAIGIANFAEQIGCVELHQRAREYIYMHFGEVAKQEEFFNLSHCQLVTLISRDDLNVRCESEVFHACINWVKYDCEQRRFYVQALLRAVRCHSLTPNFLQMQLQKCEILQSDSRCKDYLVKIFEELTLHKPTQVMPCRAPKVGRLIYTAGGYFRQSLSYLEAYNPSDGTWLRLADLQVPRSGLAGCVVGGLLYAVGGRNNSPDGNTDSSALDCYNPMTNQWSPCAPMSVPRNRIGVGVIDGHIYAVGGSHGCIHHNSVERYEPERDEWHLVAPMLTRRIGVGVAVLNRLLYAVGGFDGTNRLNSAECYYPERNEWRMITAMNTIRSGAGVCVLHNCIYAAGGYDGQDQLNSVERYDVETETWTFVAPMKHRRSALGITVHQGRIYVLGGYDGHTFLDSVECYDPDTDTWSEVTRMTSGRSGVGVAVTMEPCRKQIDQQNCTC

| Compound | EC50 | activation at 10 µM (6 h) | activation at 10 µM (6 hours) |
| --- | --- | --- | --- |
| C=C1CC[C@@H]2[C@]3(C)COS(=O)O[C@@H]3CC[C@@]2(C)[C@@H]1C/C=C1/C(=O)OCC1NC(=O)COC (single isomer, unassigned) [Example 40B] | 500 to 2000 nM | – | > 100% |
| CC1(C)CCC[C@@]2(C)[C@H]1CCC1(CC1)[C@@H]2CC/C=C1\C(=O)OC[C@H]1NS(C)(=O)=O [Example 38, N—((S,Z)-5-oxo-4-(3-((1′S,4a′S,8a′S)-5′,5′,8a′-trimethyloctahydro-1′H-spiro[cyclopropane-1,2′-naphthalen]-1′-yl)propylidene)tetrahydrofuran-3-yl)methanesulfonamide] | – | 30 to 50% | – |
| CC1(C)CCC[C@@]2(C)[C@H]1CCC1(CC1)[C@@H]2C/C=C1/C(=O)OC[C@H]1NC=O [Example 24, N—((S,E)-5-oxo-4-(2-((1′S,4a′S,8a′S)-5′,5′,8a′-trimethyloctahydro-1′H-spiro[cyclopropane-1,2′-naphthalen]-1′-yl)ethylidene)tetrahydrofuran-3-yl)formamide] | – | 51 to 100% | – |
| C=C1CC[C@@H]2[C@]3(C)CO[S@](=O)O[C@@H]3CC[C@@]2(C)[C@@H]1C/C=C1/C(=O)OC[C@H]1O [Example 8, (S,E)-3-(2-((3S, 4aR, 6aS, 7R, 10aS, 10bR)-6a,10b-dimethyl-8-methylene-3-oxidodecahydro-1H-naphtho[2,1-d][1,3,2]dioxathiin-7-yl)ethylidene)-4-hydroxydihydrofuran-2(3H)-one] | 500 to 2000 nM | > 100% | – |
| CC1(C)CCC[C@@]2(C)[C@H]1CCC1(CC1)[C@@H]2CC/C=C1/C(=O)OC[C@H]1NS(C)(=O)=O [Example 37, N—((S,E)-5-oxo-4-(3-((1′S,4a′S,8a′S)-5′,5′,8a′-trimethyloctahydro-1′H-spiro[cyclopropane-1,2′-naphthalen]-1′-yl)propylidene)tetrahydrofuran-3-yl)methanesulfonamide] | – | 30 to 50% | – |
| CC1=CC[C@@H]2[C@@H](C)[C@@](O)(C(F)(F)F)CC[C@@]2(C)[C@@H]1C/C=C1/C(=O)OC[C@H]1O [Example 48, (S,E)-4-hydroxy-3-(2-((1R,4aR,5R,6R,8aR)-6-hydroxy-2,5,8a-trimethyl-6-(trifluoromethyl)-1,4,4a,5,6,7,8,8a-octahydronaphthalen-1-yl)ethylidene)dihydrofuran-2(3H)-one] | > 2000 nM | – | – |
| C=C1CC[C@@H]2[C@@H](C)[C@@H](O)CC[C@@]2(C)[C@@H]1C/C=C1/C(=O)OC[C@H]1O [Example 1, (S,E)-4-hydroxy-3-(2-((1R,4aR,5R,6S,8aR)-6-hydroxy-5,8a-dimethyl-2-methylenedecahydronaphthalen-1-yl)ethylidene)dihydrofuran-2(3H)-one] | 500 to 2000 nM | 51 to 100% | – |
| C=C1CC[C@@H]2[C@]3(C)COS(=O)O[C@@H]3CC[C@@]2(C)[C@@H]1C/C=C1/C(=O)OC[C@@H]1NC=O (stereo partly drawn) [Example 21, N-((3R,E)-4-(2-((4aR,6aS,7R,10aS,10bR)-6a,10b-dimethyl-8-methylene-3-oxidodecahydro-1H-naphtho[2,1-d][1,3,2]dioxathiin-7-yl)ethylidene)-5-oxotetrahydrofuran-3-yl)formamide] | > 2000 nM | 51 to 100% | – |
| C=C1CC[C@H]2[C@@](C)(CC[C@](C)(O)[C@@]2(C)CO)[C@@H]1C/C=C1/C(=O)OC[C@H]1O [Example 6, (S,E)-4-hydroxy-3-(2-((1R,4aS,5R,6S,8a5)-6-hydroxy-5-(hydroxymethyl)-5,6,8a-trimethyl-2-methylenedecahydronaphthalen-1-yl)ethylidene)dihydrofuran-2(3H)-one] | – | 51 to 100% | – |
| CC(=O)N[C@@H]1COC(=O)/C1=C\C[C@H]1C2(CC[C@H]3C(C)(C)CCC[C@@]31C)CC2 [Example 27, N—((S,Z)-5-oxo-4-(2-((1′S,4a′S,8a′S)-5′,5′,8a′-trimethyloctahydro-1′H-spiro[cyclopropane-1,2′-naphthalen]-1′-yl)ethylidene)tetrahydrofuran-3-yl)acetamide] | – | 30 to 50% | – |
| C=C1CC[C@H]2[C@@](C)(CC[C@@]3(C)ON=C[C@@]23C)[C@@H]1C/C=C1/C(=O)OC[C@H]1O [Example 14, (S,E)-4-hydroxy-3-(2-((3aR,5aS,6R,9aS,9bR)-3a,5a,9b-trimethyl-7-methylene-3a,4,5,5a,6,7,8,9,9a,9b-decahydronaphtho[1,2-d]isoxazol-6-yl)ethylidene)dihydrofuran-2(3H)-one] | > 2000 nM | > 100% | – |
| C=C1CC[C@@H]2[C@@H](C)[C@H](NC)CC[C@@]2(C)[C@@H]1C/C=C1/C(=O)OC[C@H]1O [Example 15, (4S,E)-3-(2-((1R,4aR,5R,8aR)-5,8a-dimethyl-6-(methylamino)-2-methylenedecahydronaphthalen-1-yl)ethylidene)-4-hydroxydihydrofuran-2(3H)-one] | 500 to 2000 nM | 51 to 100% | – |
| C=C1CC[C@H]2[C@@](C)(CC[C@@]3(C)O[S@@](=O)OC[C@@]23C)[C@@H]1C/C=C1/C(=O)OC[C@H]1O [Example 13, (S,E)-4-hydroxy-3-(2-((3S,4aR,6aS,7R,10aS,10bR)-4a,6a,10b-trimethyl-8-methylene-3-oxidodecahydro-1H-naphtho[2,1-d][1,3,2]dioxathiin-7-yl)ethylidene)dihydrofuran-2(3H)-one] | 500 to 2000 nM | > 100% | – |
| CC1(C)CCC[C@@]2(C)[C@H]1CCC1(CC1)[C@@H]2CC/C=C1\C(=O)OC[C@H]1NC=O [Example 34, N-((S,Z)-5-oxo-4-(3-((l′S,4a′S,8a′S)-5′,5′,8a′-trimethyloctahydro-1′H-spiro[cyclopropane-1,2′-naphthalen]-1′-yl)propylidene)tetrahydrofuran-3-yl)formamide] | – | 30 to 50% | – |
| CC(=O)N[C@@H]1COC(=O)/C1=C\CC[C@H]1C2(CC[C@H]3C(C)(C)CCC[C@@]31C)CC2 [Example 36, N—((S,Z)-5-oxo-4-(3-((1′S,4a′S,8a′S)-5′,5′,8a′-trimethyloctahydro-1′H-spiro[cyclopropane-1,2′-naphthalen]-1′-yl)propylidene)tetrahydrofuran-3-yl)acetamide] | > 2000 nM | 51 to 100% | – |
| C=C1CC[C@@H]2[C@]3(C)COS(=O)O[C@@H]3CC[C@@]2(C)[C@@H]1C/C=C1/C(=O)OC[C@H]1NC=O (single isomer, unassigned) [Example 20] | 500 to 2000 nM | > 100% | – |
| CC(=O)N[C@@H]1COC(=O)/C1=C/CC[C@H]1C2(CC[C@H]3C(C)(C)CCC[C@@]31C)CC2 [Example 35, N-((S,E)-5-oxo-4-(3-((1′S,4a′S,8a′S)-5′,5′,8a′-trimethyloctahydro-1′H-spiro[cyclopropane-1,2′-naphthalen]-1′-yl)propylidene)tetrahydrofuran-3-yl)acetamide] | > 2000 nM | 51 to 100% | – |
| CO[C@@H]1CC[C@@]2(C)C(C/C=C3/C(=O)OC[C@H]3O)=C(C)CC[C@@H]2[C@H]1C [Example 18, (S,E)-4-hydroxy-3-(2-((4aR,5R,6R,8aR)-6-methoxy-2,5,8a-trimethyl-3,4,4a,5,6,7,8,8a-octahydronaphthalen-1-yl)ethylidene)dihydrofuran-2(3H)-one] | – | 30 to 50% | – |

The next lines start with results.

| EC50 | activation at 10 µM (6 h) | Compound | activation at 10 µM (6 hours) |
| --- | --- | --- | --- |
| > 2000 nM | – | C=C1CC[C@@H]2[C@]3(C)COS(=O)O[C@@H]3CC[C@@]2(C)[C@@H]1C/C=C1/C(=O)OCC1NC(=O)CO (single isomer, unassigned) [Example 41A] | – |
| < 500 nM | – | C=C1CC[C@@H]2[C@@H](C)[C@](O)(C(F)(F)F)CC[C@@]2(C)[C@@H]1C/C=C1/C(=O)OC[C@H]1O [Example 42A, (S,E)-4-hydroxy-3-(2-((1R,4aR,5R,6S,8aR)-6-hydroxy-5,8a-dimethyl-2-methylene-6-(trifluoromethyl)decahydronaphthalen-1-yl)ethylidene)dihydrofuran-2(3H)one] | – |
| > 2000 nM | – | C=C1CC[C@@H]2[C@@H](C)[C@](O)(C(F)(F)F)CC[C@@]2(C)[C@@H]1C/C=C1/C(=O)OCC1NC=O (single isomer, unassigned) [Example 44A] | – |
| < 500 nM | – | C=C1CC[C@@H]2[C@@H](C)[C@@](O)(C(F)(F)F)CC[C@@]2(C)[C@@H]1C/C=C1/C(=O)OCC1NC=O (single isomer, unassigned) [Example 43B] | – |
| > 2000 nM | – | C=C1CC[C@@H]2[C@]3(C)COCO[C@@H]3CC[C@@]2(C)[C@@H]1C/C=C1/C(=O)OCC1NC(=O)COC (single isomer, unassigned) [Example 46A] | – |

From US20170354639A1, “DITERPENOID DERIVATIVES AND METHODS OF USE THEREOF” (Biogen MA Inc., priority 2014, published 2017)
